The record followed here is patent US20240383954A1, “PEPTIDE INHIBITORS OF INTERLEUKIN-23 RECEPTOR AND THEIR USE TO TREAT INFLAMMATORY DISEASES” (Janssen Biotech, Inc., priority 2020, published 2024).

Positions of bridges follow the written chain, without caps; N, C: chain ends. Non-standard residues stand in square brackets, D forms with d. Residues, ends and D or L forms follow the SMILES beside them. *: point of attachment. Trp(7-Me) = Cc1cccc2c(C[C@H](N)C(=O)O)c[nH]c12; 2Nal = N[C@@H](Cc1ccc2ccccc2c1)C(=O)O; Propanoyl(3,3,3-F3) = O=C(CC(F)(F)F)*; AEF = NCCOc1ccc(C[C@H](N)C(=O)O)cc1; αMeY = C[C@](N)(Cc1ccc(O)cc1)C(=O)O; αMeF = C[C@](N)(Cc1ccccc1)C(=O)O; αMeE = C[C@](N)(CCC(=O)O)C(=O)O; Pen = CC(C)(S)[C@H](N)C(=O)O; αMeC = C[C@](N)(CS)C(=O)O; Ac5c = NC1(C(=O)O)CCCC1; Thp = NC1(C(=O)O)CCOCC1; Hexanoyl = CCCCCC(=O)*; Ac3c = NC1(C(=O)O)CC1
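Further: cryopreserved PBMCs stimulated at 37 °C in 5% CO2, then lysed, with phosphorylated STAT3 quantified in lysates using a phospho-STAT panel kit.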

Sequence of IL-23R (Q5VWK5 24-629): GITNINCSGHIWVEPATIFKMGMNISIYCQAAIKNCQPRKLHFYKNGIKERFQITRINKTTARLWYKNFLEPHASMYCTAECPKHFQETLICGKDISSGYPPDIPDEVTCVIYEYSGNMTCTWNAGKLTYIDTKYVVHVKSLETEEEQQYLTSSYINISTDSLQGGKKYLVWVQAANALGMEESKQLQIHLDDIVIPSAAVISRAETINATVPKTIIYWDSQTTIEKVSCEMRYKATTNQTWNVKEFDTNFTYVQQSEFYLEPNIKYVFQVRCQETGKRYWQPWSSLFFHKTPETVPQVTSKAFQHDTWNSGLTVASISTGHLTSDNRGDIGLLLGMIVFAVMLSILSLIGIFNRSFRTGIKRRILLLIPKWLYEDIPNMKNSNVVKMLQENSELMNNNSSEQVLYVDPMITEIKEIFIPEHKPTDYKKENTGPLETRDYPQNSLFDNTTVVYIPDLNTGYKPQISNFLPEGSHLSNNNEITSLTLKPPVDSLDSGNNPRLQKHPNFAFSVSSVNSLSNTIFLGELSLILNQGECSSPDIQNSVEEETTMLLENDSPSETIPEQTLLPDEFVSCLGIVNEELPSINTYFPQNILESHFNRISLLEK

The assay addresses IL-23R (Homo sapiens, UniProt Q5VWK5). The assay is described as follows: cell-based. The settings on record: PBMC pSTAT3 IC50 (nM), PBMCs from healthy donors, IL-23 5 ng/mL, 30 minutes, phosphorylated STAT3.
Protocol: Cryopreserved peripheral blood mononuclear cells (PBMCs) from healthy donors were thawed and washed twice in ImmunoCult-XF T cell expansion medium (XF-TCEM) supplemented with CTL anti-aggregate wash. […] The cells were stimulated with cytokine for 30 minutes at 37° C. in 5% CO2, transferred onto ice for 10 minutes, and lysed. Cell lysates were stored at −80° C. until phosphorylated STAT3 was measured using the phospho-STAT panel kit (Meso Scale Discovery, K15202D).
In the case of `CC(=O)N[C@H](CCCNC(=N)N)C(=O)N[C@@H]1C(=O)N[C@@H](CC(N)=O)C(=O)N[C@@H]([C@@H](C)O)C(=O)N[C@@H](Cc2c[nH]c3c(C)cccc23)C(=O)N[C@@H](CCC(N)=O)C(=O)N[C@H](C(=O)N[C@@H](Cc2ccc(OCCN)cc2)C(=O)N[C@@H](Cc2ccc3ccccc3c2)C(=O)NC2(C(=O)N[C@@H](CCC(=O)O)C(=O)N[C@@H](CC(N)=O)C(=O)N[C@@](C)(Cc3ccccc3)C(N)=O)CCOCC2)C(C)(C)SSC1(C)C` [Compound 91, Ac-[(D)Arg]-[Pen]-N-T-[W(7-Me)]-Q-[Pen]-Phe[4-(2-aminoethoxy)]-[2-Nal]-[THP]-E-N-[a-MePhe]-NH2] (Ac-[dR][Pen]NT[Trp(7-Me)]Q[Pen][AEF][2Nal][Thp]EN[αMeF]-NH2; disulfide 2-7), the midpoint of inhibition, the IC50, lay at 4.1 nM. `COc1ccc(C[C@H](NC(=O)[C@@H]2CSCC[C@H](NC(=O)[C@@H](CCCNC(=N)N)NC(=O)Cn3cc(CCCF)nn3)C(=O)N[C@@H](CCC(N)=O)C(=O)N[C@@H]([C@@H](C)O)C(=O)N[C@@H](Cc3c[nH]c4ccccc34)C(=O)N[C@@H](CCC(N)=O)C(=O)N2)C(=O)N[C@@H](Cc2ccc3ccccc3c2)C(=O)NC2(C(=O)N[C@@H](CCC(=O)O)C(=O)N[C@@H](CC(N)=O)C(=O)NC3(C(N)=O)CCOCC3)CCOCC2)cc1` [Compound 25, FPrpTriazoleMe_Acid-[(D)Arg]-[Abu]-Q-T-W-Q-[Cys]-[Phe(4-OMe)]-[2-Nal]-[THP]-E-N-[THP]-NH2]: the IC50 (usually the concentration that gives 50% inhibition) turned out to be 21 nM. Consider `CC(=O)NCCCC[C@@H]1NC(=O)[C@H](Cc2c[nH]c3ccccc23)NC(=O)[C@H]([C@@H](C)O)NC(=O)[C@H](CC(N)=O)NC(=O)[C@@H](NC(C)=O)CSSC[C@@](C)(C(=O)N[C@@H](Cc2ccc(OCCN)cc2)C(=O)N[C@@H](Cc2ccc3ccccc3c2)C(=O)N[C@@](C)(CCCCN)C(=O)N[C@@H](CCCCNC(C)=O)C(=O)N[C@@H](CC(N)=O)C(=O)NC2(C(N)=O)CCOCC2)NC1=O` [Compound 121, Ac-[Cys]-N-T-W-[Lys(Ac)]-[aMeCys]-Phe[4-(2-aminoethoxy)]-[2-Nal]-[a-MeLys]-[Lys(Ac)]-N-[THP]-NH2], for which 41 nM corresponded to half-maximal inhibition (IC50). With `CC(=O)NCCCC[C@@H]1NC(=O)[C@H](Cc2c[nH]c3c(C)cccc23)NC(=O)[C@H]([C@@H](C)O)NC(=O)[C@H](CC(N)=O)NC(=O)[C@@H](NC(=O)[C@@H](CCCNC(=N)N)NC(C)=O)C(C)(C)SSC(C)(C)[C@@H](C(=O)N[C@@H](Cc2ccc(OCCN)cc2)C(=O)N[C@@H](Cc2ccc3ccccc3c2)C(=O)NC2(C(=O)N[C@@](C)(CCC(=O)O)C(=O)N[C@@H](CC(N)=O)C(=O)N[C@@](C)(Cc3ccc(O)cc3)C(N)=O)CCOCC2)NC1=O` [Compound 150, Ac-[(D)Arg]-[Pen]-N-T-[W(7-Me)]-[Lys(Ac)]-[Pen]-Phe[4-(2-aminoethoxy)]-[2-Nal]-[THP]-[aMeGlu]-N-[aMeTyr]-NH2] (Ac-[dR][Pen]NT[Trp(7-Me)]K(Ac)[Pen][AEF][2Nal][Thp][αMeE]N[αMeY]-NH2; disulfide 2-7) the figure was 4.7 nM. Compound `COc1ccc(C[C@@H](NC(=O)[C@H](CC(N)=O)NC(=O)[C@](C)(CCC(=O)O)NC(=O)C2(NC(=O)[C@H](Cc3ccc4ccccc4c3)NC(=O)[C@H](Cc3ccc(OCCN)cc3)NC(=O)[C@@H]3CSCC[C@H](NC(=O)[C@@H](CCCNC(=N)N)NC(C)=O)C(=O)N[C@@H](CCC(N)=O)C(=O)N[C@@H]([C@@H](C)O)C(=O)N[C@@H](Cc4c[nH]c5ccccc45)C(=O)N[C@@H](CCC(N)=O)C(=O)N3)CCOCC2)C(N)=O)cc1OC` [Compound 79, Ac-[(D)Arg]-[Abu]-Q-T-W-Q-[Cys]-Phe[4-(2-aminoethoxy)]-[2-Nal]-[THP]-[aMeGlu]-N-[(D)Phe(3,4-diOMe)]-NH2] had an IC50 of 25 nM. As for `CC(=O)NCCCC[C@@H]1NC(=O)[C@H](Cc2c[nH]c3c(C)cccc23)NC(=O)[C@H]([C@@H](C)O)NC(=O)[C@H](CC(N)=O)NC(=O)[C@@H](NC(C)=O)C(C)(C)SSC(C)(C)[C@@H](C(=O)N[C@@H](Cc2ccc(OCCN)cc2)C(=O)N[C@@H](Cc2ccc3ccccc3c2)C(=O)NC2(C(=O)N[C@@H](CCCCNC(=O)C(C)(C)C)C(=O)N[C@@H](CC(N)=O)C(=O)NC3(C(N)=O)CCOCC3)CCOCC2)NC1=O` [Compound 141, Ac-[Pen]-N-T-[W(7-Me)]-[Lys(Ac)]-[Pen]-Phe[4-(2-aminoethoxy)]-[2-Nal]-[THP]-[Lys(COtBu)]-N-[THP]-NH2], the figure is 3.7 nM; as for `CC(=O)NCCCC[C@@H]1NC(=O)[C@H](Cc2c[nH]c3c(C)cccc23)NC(=O)[C@H]([C@@H](C)O)NC(=O)[C@H](CC(N)=O)NC(=O)[C@@H](NC(=O)[C@@H](CCCNC(=N)N)NC(C)=O)C(C)(C)SSC(C)(C)[C@@H](C(=O)N[C@@H](Cc2ccc(OCCN)cc2)C(=O)N[C@@H](Cc2ccc3ccccc3c2)C(=O)NC2(C(=O)N[C@@H](CCC(=O)O)C(=O)N[C@@H](CC(N)=O)C(=O)N[C@@](C)(Cc3ccccc3)C(N)=O)CCOCC2)NC1=O` [Compound 77, Ac-[(D)Arg]-[Pen]-N-T-[W(7-Me)]-[Lys(Ac)]-[Pen]-Phe[4-(2-aminoethoxy)]-[2-Nal]-[THP]-E-N-[a-MePhe]-NH2] (Ac-[dR][Pen]NT[Trp(7-Me)]K(Ac)[Pen][AEF][2Nal][Thp]EN[αMeF]-NH2; disulfide 2-7), 6.4 nM; as for `CC(=O)NCCCC[C@@H]1NC(=O)[C@H](Cc2c[nH]c3ccccc23)NC(=O)[C@H]([C@@H](C)O)NC(=O)[C@H](CC(N)=O)NC(=O)[C@@H](NC(=O)[C@@H](CCCNC(=N)N)NC(C)=O)C(C)(C)SSC(C)(C)[C@@H](C(=O)N[C@@H](Cc2ccc(OCCN)cc2)C(=O)N[C@@H](Cc2ccc3ccccc3c2)C(=O)NC2(C(=O)N[C@@H](CCC(=O)O)C(=O)N[C@@H](CC(N)=O)C(=O)N[C@@](C)(Cc3ccccc3)C(N)=O)CCCC2)NC1=O` [Compound 102, Ac-[(D)Arg]-[Pen]-N-T-W-[Lys(Ac)]-[Pen]-Phe[4-(2-aminoethoxy)]-[2-Nal]-[Acvc]-E-N-[a-MePhe]-NH2] (Ac-[dR][Pen]NTWK(Ac)[Pen][AEF][2Nal][Ac5c]EN[αMeF]-NH2; disulfide 2-7), 8.4 nM. With `CCCCCC(=O)NCCCC[C@H](NC(=O)C1(NC(=O)[C@H](Cc2ccc3ccccc3c2)NC(=O)[C@H](Cc2ccc(OCCN)cc2)NC(=O)[C@H]2NC(=O)[C@H](CCC(N)=O)NC(=O)[C@H](Cc3c[nH]c4ccccc34)NC(=O)[C@H]([C@@H](C)O)NC(=O)[C@H](CCC(N)=O)NC(=O)[C@@H](NC(=O)[C@@H](CCCNC(=N)N)NC(C)=O)C(C)(C)SSC2(C)C)CCOCC1)C(=O)N[C@@H](CC(N)=O)C(=O)N[C@@H](Cc1ccccc1)C(N)=O` [Compound 59, Ac-[(D)Arg]-[Pen]-Q-T-W-Q-[Pen]-Phe[4-(2-aminoethoxy)]-[2-Nal]-[THP]-[Lys(COPent)]-N-F-NH2] (Ac-[dR][Pen]QTWQ[Pen][AEF][2Nal][Thp]K(Hexanoyl)NF-NH2; disulfide 2-7) the figure was 67 nM; with `CCC(=O)NCCCC[C@H](NC(=O)C1(NC(=O)[C@H](Cc2ccc3ccccc3c2)NC(=O)[C@H](Cc2ccc(OCCN)cc2)NC(=O)[C@H]2NC(=O)[C@H](CCC(N)=O)NC(=O)[C@H](Cc3c[nH]c4ccccc34)NC(=O)[C@H]([C@@H](C)O)NC(=O)[C@H](CCC(N)=O)NC(=O)[C@@H](NC(=O)[C@@H](CCCNC(=N)N)NC(C)=O)C(C)(C)SSC2(C)C)CCOCC1)C(=O)N[C@@H](CC(N)=O)C(=O)NC1(C(N)=O)CCOCC1` [Compound 57, Ac-[(D)Arg]-[Pen]-Q-T-W-Q-[Pen]-Phe[4-(2-aminoethoxy)]-[2-Nal]-[THP]-[Lys(COEt)]-N-[THP]-NH2], 18 nM.

As for `CC(=O)NCCCC[C@H](NC(=O)C1(NC(=O)[C@H](Cc2ccc3ccccc3c2)NC(=O)[C@H](Cc2ccc(OCCN)cc2)NC(=O)[C@H]2NC(=O)[C@H](CCC(N)=O)NC(=O)[C@H](Cc3c[nH]c4ccccc34)NC(=O)[C@H]([C@@H](C)O)NC(=O)[C@H](CCC(N)=O)NC(=O)[C@@H](NC(=O)[C@@H](CCCNC(=N)N)NC(C)=O)C(C)(C)SSC2(C)C)CCOCC1)C(=O)N[C@@H](CC(N)=O)C(=O)NC1(C(N)=O)CCOCC1` [Compound 56, Ac-[(D)Arg]-[Pen]-Q-T-W-Q-[Pen]-Phe[4-(2-aminoethoxy)]-[2-Nal]-[THP]-[Lys(Ac)]-N-[THP]-NH2], half-maximal inhibition (IC50) required 4.9 nM. As for `CC(=O)N[C@H](CCCNC(=N)N)C(=O)N[C@H]1CCSC[C@@H](C(=O)N[C@@H](Cc2ccc(OCCN)cc2)C(=O)N[C@@H](Cc2ccc3ccccc3c2)C(=O)NC2(C(=O)N[C@@](C)(CCC(=O)O)C(=O)N[C@@H](CC(N)=O)C(=O)N[C@@H](Cc3cc(F)cc(F)c3)C(N)=O)CCOCC2)NC(=O)[C@H](CCC(N)=O)NC(=O)[C@H](Cc2c[nH]c3ccccc23)NC(=O)[C@H]([C@@H](C)O)NC(=O)[C@H](CCC(N)=O)NC1=O` [Compound 46, Ac-[(D)Arg]-[Abu]-Q-T-W-Q-[Cys]-Phe[4-(2-aminoethoxy)]-[2-Nal]-[THP]-[aMeGlu]-N-[Phe(3,5-diF)]-NH2], the figure is 48 nM; as for `CC(=O)NCCCC[C@@H]1NC(=O)[C@H](Cc2c[nH]c3c(C)cccc23)NC(=O)[C@H]([C@@H](C)O)NC(=O)[C@H](CC(N)=O)NC(=O)[C@@H](NC(=O)[C@@H](CCCNC(=N)N)NC(C)=O)CSSC[C@@](C)(C(=O)N[C@@H](Cc2ccc(OCCN)cc2)C(=O)N[C@@H](Cc2ccc3ccccc3c2)C(=O)NC2(C(=O)N[C@@H](CCC(=O)O)C(=O)N[C@@H](CC(N)=O)C(=O)NC3(C(N)=O)CCOCC3)CC2)NC1=O` [Compound 310, MeCO-r-C-N-T-7MeW-K(Ac)- aMeC-AEF-2Nal-Acpx-E-N-THP-CONH2] (Ac-[dR]CNT[Trp(7-Me)]K(Ac)[αMeC][AEF][2Nal][Ac3c]EN[Thp]-NH2; disulfide 2-7), 9.9 nM. As for `C[C@@H](O)[C@@H]1NC(=O)[C@H](CCC(N)=O)NC(=O)[C@@H](NC(=O)[C@@H](CCCNC(=N)N)NC(=O)CC(F)(F)F)C(C)(C)SSC(C)(C)[C@@H](C(=O)N[C@@H](Cc2ccc(OCCN)cc2)C(=O)N[C@@H](Cc2ccc3ccccc3c2)C(=O)NC2(C(=O)N[C@@H](CCC(=O)O)C(=O)N[C@@H](CC(N)=O)C(=O)NC3(C(N)=O)CCOCC3)CCOCC2)NC(=O)[C@H](CCC(N)=O)NC(=O)[C@H](Cc2c[nH]c3ccccc23)NC1=O` [Compound 5, [3,3,3-Trifluoropropionic acid]-[(D)Arg]-[Pen]-Q-T-W-Q-[Pen]-Phe[4-(2-aminoethoxy)]-[2-Nal]-[THP]-E-N-[THP]-NH2] ({Propanoyl(3,3,3-F3)}-[dR][Pen]QTWQ[Pen][AEF][2Nal][Thp]EN[Thp]-NH2; disulfide 2-7), the figure is 4.7 nM.
